Assay results from patent US10669272B2, “Substituted naphthyridinone compounds useful as T cell activators” (BRISTOL-MYERS SQUIBB COMPANY, priority 2018, dated 2020).
Where a name gives a salt, the structure may show the parent alone. Read-outs that look alike come from different tables or passages of the source.

Key:
human DGKα = target: T1, human DGKα (Homo sapiens, UniProt P23743); assay: DGKα LIPGLO assay (extruded liposome substrate), in vitro DGK inhibition; type: biochemical; details: read-out: DGKa LIPGLO IC50
T1 construct: TVMV protease cleavage site (C); Hexa-His (C); made in house; host or cells: Sf9 insect cells (baculovirus, Bac-to-Bac)
T1 sequence (P23743 with tags, fused parts or gaps): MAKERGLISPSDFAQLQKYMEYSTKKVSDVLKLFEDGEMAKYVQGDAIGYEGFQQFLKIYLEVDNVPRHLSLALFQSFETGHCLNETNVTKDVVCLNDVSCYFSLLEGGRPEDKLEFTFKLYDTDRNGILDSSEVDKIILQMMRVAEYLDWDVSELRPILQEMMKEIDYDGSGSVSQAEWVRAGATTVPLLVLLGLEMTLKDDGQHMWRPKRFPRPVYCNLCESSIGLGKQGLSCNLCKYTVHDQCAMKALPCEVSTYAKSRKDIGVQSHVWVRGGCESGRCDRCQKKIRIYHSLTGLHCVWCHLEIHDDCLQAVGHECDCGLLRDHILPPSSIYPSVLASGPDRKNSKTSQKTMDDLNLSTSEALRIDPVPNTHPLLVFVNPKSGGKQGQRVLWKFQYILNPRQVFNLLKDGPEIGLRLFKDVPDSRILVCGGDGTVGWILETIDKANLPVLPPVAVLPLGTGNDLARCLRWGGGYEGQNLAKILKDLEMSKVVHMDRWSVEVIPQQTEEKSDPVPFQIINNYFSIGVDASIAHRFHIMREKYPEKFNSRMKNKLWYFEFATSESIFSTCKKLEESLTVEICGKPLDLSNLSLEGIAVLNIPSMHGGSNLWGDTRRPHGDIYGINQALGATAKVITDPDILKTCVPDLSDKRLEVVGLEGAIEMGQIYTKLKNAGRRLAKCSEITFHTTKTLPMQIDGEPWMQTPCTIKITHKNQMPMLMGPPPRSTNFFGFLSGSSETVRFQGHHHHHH

human DGKζ = target: T2, human DGKζ (Homo sapiens, UniProt Q13574); assay: DGKζ LIPGLO assay (extruded liposome substrate), in vitro DGK inhibition; type: biochemical; details: read-out: DGKz LIPGLO IC50
T2 construct: TVMV protease cleavage site (C); Hexa-His (C); made in house; host or cells: Sf9 insect cells (baculovirus, Bac-to-Bac)
T2 sequence (Q13574 with tags, fused parts or gaps isoform Q13574-4): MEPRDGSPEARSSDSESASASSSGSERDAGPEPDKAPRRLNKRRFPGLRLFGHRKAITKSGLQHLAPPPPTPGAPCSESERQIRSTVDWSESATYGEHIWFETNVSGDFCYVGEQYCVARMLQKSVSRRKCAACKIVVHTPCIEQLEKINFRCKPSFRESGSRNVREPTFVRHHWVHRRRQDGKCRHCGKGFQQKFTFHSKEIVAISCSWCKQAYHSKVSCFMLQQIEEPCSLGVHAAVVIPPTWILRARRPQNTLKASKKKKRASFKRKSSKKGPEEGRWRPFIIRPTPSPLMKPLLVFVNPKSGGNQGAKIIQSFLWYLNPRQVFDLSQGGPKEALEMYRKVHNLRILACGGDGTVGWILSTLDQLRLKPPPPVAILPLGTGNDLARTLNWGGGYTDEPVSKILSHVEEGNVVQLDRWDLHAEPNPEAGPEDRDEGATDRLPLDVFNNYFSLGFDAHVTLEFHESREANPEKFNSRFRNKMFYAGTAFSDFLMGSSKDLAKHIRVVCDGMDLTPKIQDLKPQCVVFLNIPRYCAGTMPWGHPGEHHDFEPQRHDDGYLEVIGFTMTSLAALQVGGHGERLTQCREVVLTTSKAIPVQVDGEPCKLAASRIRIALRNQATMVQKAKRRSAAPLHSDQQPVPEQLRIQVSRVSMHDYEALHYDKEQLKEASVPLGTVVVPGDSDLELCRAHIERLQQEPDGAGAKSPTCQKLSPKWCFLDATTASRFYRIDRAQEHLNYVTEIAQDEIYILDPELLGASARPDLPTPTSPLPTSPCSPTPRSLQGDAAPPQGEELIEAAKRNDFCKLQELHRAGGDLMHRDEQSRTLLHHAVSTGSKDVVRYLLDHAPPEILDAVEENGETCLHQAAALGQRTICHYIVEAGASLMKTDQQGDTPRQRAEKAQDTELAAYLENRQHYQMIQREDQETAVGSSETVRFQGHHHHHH

SMILES	IC50 (human DGKα; liposome (LIPGLO) assay) [µM]	IC50 (human DGKζ; liposome (LIPGLO) assay) [µM]	IC50 (human DGKα; DGKα liposome (LIPGLO) assay) [µM]	IC50 (human DGKζ; DGKζ liposome (LIPGLO) assay) [µM]
C[C@@H]1CN(c2c(C#N)c(=O)n(C)c3ccc(C#N)nc23)CCN1C(c1ccc(Cl)cc1)c1ccc(C#N)cc1 (single isomer, unassigned) [Example 872]	–	–	1.5	1.4
CC(C)C(C)(F)C1CN(c2cc(=O)n(C)c3ccc(C#N)nc23)CCN1C(c1ccc(F)cc1)c1ccc(F)cc1 (single isomer, unassigned) [Example 91, 8-(4-(bis(4-fluorophenyl)methyl)-3-(2-fluoro-3-methylbutan-2-yl)piperazin-1-yl)-5-methyl-6-oxo-5,6-dihydro-1,5-naphthyridine-2-carbonitrile, TFA]	240	240	–	–
C[C@@H]1CN(c2c(C#N)c(=O)n(C)c3ccc(C#N)nc23)CCN1C(c1ccc(F)cc1)c1cnccn1 (stereo partly drawn) [Example 943]	–	–	1.1	6.7
CC(c1cccc(C(F)(F)F)c1)N1CCN(c2c(C#N)c(=O)n(C)c3ccc(C#N)nc23)C[C@H]1C (single isomer, unassigned) [Example 971]	–	–	1.8	4.9
Cc1ccc(C(c2ccc(Cl)cn2)N2CCN(c3c(C#N)c(=O)n(C)c4ccc(C#N)nc34)C[C@H]2C)cc1 (single isomer, unassigned) [Example 936]	–	–	1	3.3
C[C@@H]1CN(c2c(C#N)c(=O)n(C)c3ccc(C#N)nc23)CCN1C(c1ccc(F)cc1)c1ccncn1 (single isomer, unassigned) [Example 313]	2.3	4.8	–	–
C[C@@H]1CN(c2c(C(F)F)c(=O)n(C)c3ccc(C#N)nc23)[C@@H](C)CN1Cc1ccc(OC(F)(F)F)cc1F [Example 570]	> 250	> 250	–	–
Cc1ccc(C(c2ccc(Cl)cc2)N2C[C@H](C)N(c3c(C#N)c(=O)n(C)c4ccc(C#N)nc34)C[C@H]2C)cc1 (stereo partly drawn) [Example 825]	–	–	23	3.2
Cc1ccc(C(c2ccc(Cl)cn2)N2CCN(c3c(C#N)c(=O)n(C)c4ccc(C#N)nc34)C[C@H]2C)cc1 (single isomer, unassigned) [Example 937]	–	–	0.34	1.1
Cc1ccc(C(c2ccc(Cl)cc2)N2C[C@H](C)N(c3c(C#N)c(=O)n(C)c4ccc(C#N)nc34)C[C@H]2C)cc1 (stereo partly drawn) [Example 826]	–	–	43	3.1
C[C@@H]1CN(c2c(C#N)c(=O)n(C)c3ccc(C#N)nc23)CCN1C(c1ccc(Cl)cc1)c1ccc(C#N)cc1 (single isomer, unassigned) [Example 873]	–	–	2.6	7.2
C[C@@H]1CN(c2c(C#N)c(=O)n(C)c3ccc(C#N)nc23)CCN1C(c1ccc(F)cc1)c1cncnc1 (stereo partly drawn) [Example 317, 8-((3R)-4-((4-fluorophenyl)(pyrimidin-5-yl)methyl)-3-methylpiperazin-1-yl)-5-methyl-6-oxo-5,6-dihydro-1,5-naphthyridine-2,7-dicarbonitrile]	3.8	13	–	–
CCC(c1ccc(OC(F)(F)F)cc1F)N1C[C@H](CC)N(c2cc(=O)n(C)c3ccc(C#N)nc23)C[C@H]1CC (single isomer, unassigned) [Example 1058]	0.75	0.57	–	–
C[C@@H]1CN(c2c(C#N)c(=O)n(C)c3ccc(C#N)nc23)CCN1Cc1c(F)cccc1Cl [Example 984]	–	–	1.5	0.88
Cn1c(=O)cc(N2CCN(C(c3ccc(F)cc3)c3ccc(F)cc3)C(COC(F)F)C2)c2nc(C#N)ccc21 (single isomer, unassigned) [Example 1186]	> 250	30	–	–
C[C@@H]1CN(c2c(C#N)c(=O)n(C)c3ccc(C#N)nc23)CCN1C(c1ccc(Cl)cc1)c1ccc(F)cn1 (single isomer, unassigned) [Example 901]	–	–	0.39	1.7
CC[C@H]1CN(C(C)c2ccc(OC(F)(F)F)cc2)[C@H](COC)CN1c1cc(=O)n(C)c2ccc(C#N)nc12 (single isomer, unassigned) [Example 1408]	0.019	0.083	–	–

Continued, values first:

IC50 (human DGKα; liposome (LIPGLO) assay) [µM]	IC50 (human DGKζ; liposome (LIPGLO) assay) [µM]	IC50 (human DGKα; DGKα liposome (LIPGLO) assay) [µM]	IC50 (human DGKζ; DGKζ liposome (LIPGLO) assay) [µM]	SMILES
15	11	–	–	CC(c1c(F)cc(F)cc1F)N1C[C@H](C)N(c2cc(=O)n(C)c3ccc(C#N)nc23)C[C@H]1C (single isomer, unassigned) [Example 488]
7	1.4	–	–	CC(C)Oc1cccc(CN2C[C@H](C)N(c3cc(=O)n(C)c4ccc(C#N)nc34)C[C@H]2C)c1 [Example 594]
> 250	> 250	–	–	C[C@@H]1CN(c2cc(=O)n(C)c3ccc(C#N)nc23)[C@@H](C)CN1C(c1ccc(F)cc1)c1ccccc1N1CCOCC1 (single isomer, unassigned) [Example 665]
0.099	0.61	–	–	CSCC(c1ccc(F)cc1)N1C[C@H](C)N(c2cc(=O)n(C)c3ccc(C#N)nc23)C[C@H]1C (single isomer, unassigned) [Example 1319]
1.8	16	–	–	C[C@@H]1CN(c2cc(=O)n(C)c3ccc(C#N)nc23)[C@@H](C)CN1C(c1ccc(Cl)cc1)c1ccncn1 (single isomer, unassigned) [Example 397]
91	3.6	–	–	C[C@@H]1CN(c2cc(=O)n(C)c3ccc(C#N)nc23)[C@@H](C)CN1C(c1ccc(F)cc1)C1CCS(=O)(=O)CC1 (single isomer, unassigned) [Example 1301]
240	52	–	–	COc1cc(F)ccc1C(c1ccc(F)cc1)N1C[C@H](C)N(c2c([N+](=O)[O-])c(=O)n(C)c3ccc(C#N)nc23)C[C@H]1C (single isomer, unassigned) [Example 121]
0.022	0.016	–	–	COC[C@@H]1CN(c2cc(=O)n(C)c3ccc(C#N)nc23)[C@@H](C)CN1C(c1ccc(F)cc1)c1nc(C2CC2)no1 (stereo partly drawn) [Example 1393, 8-((2S,5S)-4-((3-cyclopropyl-1,2,4-oxadiazol-5-yl)(4-fluorophenyl)methyl)-5-(methoxymethyl)-2-methylpiperazin-1-yl)-5-methyl-6-oxo-5,6-dihydro-1,5-naphthyridine-2-carbonitrile]
8	150	–	–	C[C@@H]1CN(c2cc(=O)n(C)c3ccc(C#N)nc23)[C@@H](C)CN1Cc1cccc2c1N(C)C(=O)CO2 [Example 635]
–	–	0.055	0.038	C[C@@H]1CN(c2cc(=O)n(C)c3ccc(C#N)nc23)[C@@H](C)CN1C(c1ccc(F)cc1)c1nc(C2CC2)co1 (stereo partly drawn) [Example 776, 8-((2S,5R)-4-((4-cyclopropyloxazol-2-yl)(4-fluorophenyl)methyl)-2,5-dimethylpiperazin-1-yl)-5-methyl-6-oxo-5,6-dihydro-1,5-naphthyridine-2-carbonitrile]
–	–	0.61	> 250	CC(c1ccc(Br)cc1)N1C[C@H](C)N(c2c(C#N)c(=O)n(C)c3ccc(C#N)nc23)C[C@H]1C (single isomer, unassigned) [Example 790]
0.46	4	–	–	C[C@@H]1CN(c2cc(=O)n(C)c3ccc(C#N)nc23)[C@@H](C)CN1C(c1ccc(OC(F)(F)F)cc1)c1ccccn1 (stereo partly drawn) [Example 405, 8-((2S,5R)-2,5-dimethyl-4-(pyridin-2-yl(4-(trifluoromethoxy)phenyl)methyl)piperazin-1-yl)-5-methyl-6-oxo-5,6-dihydro-1,5-naphthyridine-2-carbonitrile]
4.2	3.2	–	–	C[C@@H]1CN(c2cc(=O)n(C)c3ccc(C#N)nc23)[C@@H](C)CN1C(c1ccc(F)cc1)c1cncc(F)c1 (stereo partly drawn) [Example 400, 8-((2S,5R)-4-((4-fluorophenyl)(5-fluoropyridin-3-yl)methyl)-2,5-dimethylpiperazin-1-yl)-5-methyl-6-oxo-5,6-dihydro-1,5-naphthyridine-2-carbonitrile]
–	–	0.63	1.1	C[C@@H]1CN(c2cc(=O)n(C)c3ccc(C#N)nc23)[C@@H](C)CN1C(c1ccc(F)cc1)c1nnc(C2CC2)s1 (stereo partly drawn) [Example 774, 8-((2S,5R)-4-((5-cyclopropyl-1,3,4-thiadiazol-2-yl)(4-fluorophenyl)methyl)-2,5-dimethylpiperazin-1-yl)-5-methyl-6-oxo-5,6-dihydro-1,5-naphthyridine-2-carbonitrile]
0.34	1.8	–	–	CC(C)Oc1cc(F)ccc1CN1C[C@H](C)N(c2cc(=O)n(C)c3ccc(C#N)nc23)C[C@H]1C [Example 598]
9	23	–	–	Cn1c(=O)cc(N2CCN(C(c3ccc(F)cc3)c3ccc(F)cc3)CC2C#N)c2nc(C#N)ccc21 (stereo not drawn) [Example 145, 8-(4-(bis(4-fluorophenyl)methyl)-2-cyanopiperazin-1-yl)-5-methyl-6-oxo-5,6-dihydro-1,5-naphthyridine-2-carbonitrile]
1.4	4.3	–	–	CC(=O)N1CCOc2c(CN3C[C@H](C)N(c4cc(=O)n(C)c5ccc(C#N)nc45)C[C@H]3C)cccc21 [Example 631]
6.7	10	–	–	Cc1ccc(CCN2C[C@H](C)N(c3cc(=O)n(C)c4ccc(C#N)nc34)C[C@H]2C)cc1 [Example 633]
12	2.9	–	–	C[C@@H]1CN(C(c2ccc(F)cc2)c2ccc(C#N)cc2)[C@@H](CO)CN1c1cc(=O)n(C)c2ccc(C#N)nc12 (single isomer, unassigned) [Example 1176]
0.95	0.15	–	–	Cc1nc2ccc(C(C)N3C[C@H](C)N(c4cc(=O)n(C)c5ccc(C#N)nc45)C[C@H]3C)cc2s1 (single isomer, unassigned) [Example 1263]
–	–	0.15	0.34	C[C@@H]1CN(c2cc(=O)n(C)c3ccc(C#N)nc23)[C@@H](C)CN1C(c1ccc(F)cc1)c1nc(C(C)(C)C)co1 (single isomer, unassigned) [Example 778]
1.4	0.27	–	–	CC[C@@H]1CN(c2cc(=O)n(C)c3ccc(C#N)nc23)[C@@H](C)CN1C(CC1CCCCC1)c1ccc(OC(F)(F)F)cc1 (stereo partly drawn) [Example 1196]
